According to patent publication US12673975B2, “Cyclic peptide, cell scaffold material, cell separating material, and medium” (FUJIFILM Corporation, priority 2019, dated 2026):
Where two headings read alike, the source gives them in different places. Starred links: 1 amine or outer side, 2 acyl side, 3 side chain; linkers in the order of their positions; H or OH if unused. Positions of bridges follow the written chain, without caps; N, C: chain ends. Non-standard residues stand in square brackets, D forms with d. Residues, ends and D or L forms follow the SMILES beside them. Pen = CC(C)(S)[C@H](N)C(=O)O; hCys = N[C@@H](CCS)C(=O)O; Orn = NCCC[C@H](N)C(=O)O; Dab = NCC[C@H](N)C(=O)O; Dap = NC[C@H](N)C(=O)O; X1 = O=C(C[*:2])[*:1]; X2 = O=C(C[*:1])[*:2]

Columns and labels:
human integrin αvβ5 = human integrin αvβ5 (Homo sapiens, UniProt P06756+P18084); experiment: Evaluation of integrin binding property (surface plasmon resonance, Biacore 3000, immobilized cyclic peptide)
How it was run: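 SPR with cyclic peptide amine-coupled via EDC/NHS to a CM5 chip, blank channel as reference. Integrin αvβ5 at 30, 100, 300 and 1,000 nM injected 10 min at 25 °C in HEPES buffer pH 7.4 with 5 mM MgCl2, 30 min buffer flow, EDTA regeneration; Kd from reference-subtracted signals, graded by category.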

[1] = Evaluation of molecule stability (alkali treatment, residual rate by LC/MS); type: physicochemical; details: for Performance evaluation: Stability (residual rate of cyclic peptide after alkali treatment): 500 μM peptide aqueous solution plus equivalent of 1 M sodium hydroxide, 15° C., 3 hours, LC/MS peak area; for Stability (molecule stability, residual rate of the cyclic peptide rank): alkali treatment, residual rate by LC/MS
How it was run: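 500 μM aqueous cyclic peptide mixed with an equal volume of 1 M NaOH and held 3 h at 15 °C. Residual rate is total LC/MS peak area after treatment relative to untreated (100%), using a C18 column, pH 3 ammonium formate/acetonitrile gradient, 45 °C, ESI±.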

[2] = SPR, 25° C., HEPES buffer with 5 mM magnesium chloride, integrin 30-1,000 nM, read-out: Performance evaluation: Binding activity (dissociation constant between the cyclic peptide and human integrin αvβ5)
[3] = surface plasmon resonance, immobilized cyclic peptide, human integrin αvβ5, read-out: Binding activity (integrin binding property, dissociation constant rank)

Chain of human integrin αvβ5 (P06756 31-1048): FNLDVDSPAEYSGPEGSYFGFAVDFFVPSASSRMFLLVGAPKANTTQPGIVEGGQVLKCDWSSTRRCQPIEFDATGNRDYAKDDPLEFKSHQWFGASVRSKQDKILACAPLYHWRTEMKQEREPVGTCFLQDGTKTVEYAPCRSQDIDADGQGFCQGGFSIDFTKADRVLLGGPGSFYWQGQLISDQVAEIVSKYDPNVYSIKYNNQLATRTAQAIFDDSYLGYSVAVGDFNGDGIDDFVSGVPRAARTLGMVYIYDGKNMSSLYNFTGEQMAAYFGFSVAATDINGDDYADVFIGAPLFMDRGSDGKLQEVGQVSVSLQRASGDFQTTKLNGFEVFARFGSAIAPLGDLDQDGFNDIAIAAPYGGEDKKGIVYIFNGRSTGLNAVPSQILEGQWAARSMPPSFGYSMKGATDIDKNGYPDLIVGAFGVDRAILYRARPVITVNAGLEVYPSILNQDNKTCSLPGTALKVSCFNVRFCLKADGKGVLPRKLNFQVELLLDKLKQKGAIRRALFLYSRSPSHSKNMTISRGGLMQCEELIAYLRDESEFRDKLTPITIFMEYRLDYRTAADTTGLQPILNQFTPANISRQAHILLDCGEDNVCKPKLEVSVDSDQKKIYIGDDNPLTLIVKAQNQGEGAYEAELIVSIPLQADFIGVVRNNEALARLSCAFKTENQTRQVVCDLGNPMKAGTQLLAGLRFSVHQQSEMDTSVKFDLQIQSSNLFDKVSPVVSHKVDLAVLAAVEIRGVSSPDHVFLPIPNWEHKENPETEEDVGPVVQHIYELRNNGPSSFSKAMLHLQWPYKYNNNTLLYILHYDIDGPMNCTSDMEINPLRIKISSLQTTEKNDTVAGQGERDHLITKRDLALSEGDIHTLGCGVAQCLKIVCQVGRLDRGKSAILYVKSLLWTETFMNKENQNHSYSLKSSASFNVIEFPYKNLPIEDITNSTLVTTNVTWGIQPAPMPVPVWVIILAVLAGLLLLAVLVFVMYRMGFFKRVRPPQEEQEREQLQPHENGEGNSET
Chain of human integrin αvβ5 (P18084 24-799): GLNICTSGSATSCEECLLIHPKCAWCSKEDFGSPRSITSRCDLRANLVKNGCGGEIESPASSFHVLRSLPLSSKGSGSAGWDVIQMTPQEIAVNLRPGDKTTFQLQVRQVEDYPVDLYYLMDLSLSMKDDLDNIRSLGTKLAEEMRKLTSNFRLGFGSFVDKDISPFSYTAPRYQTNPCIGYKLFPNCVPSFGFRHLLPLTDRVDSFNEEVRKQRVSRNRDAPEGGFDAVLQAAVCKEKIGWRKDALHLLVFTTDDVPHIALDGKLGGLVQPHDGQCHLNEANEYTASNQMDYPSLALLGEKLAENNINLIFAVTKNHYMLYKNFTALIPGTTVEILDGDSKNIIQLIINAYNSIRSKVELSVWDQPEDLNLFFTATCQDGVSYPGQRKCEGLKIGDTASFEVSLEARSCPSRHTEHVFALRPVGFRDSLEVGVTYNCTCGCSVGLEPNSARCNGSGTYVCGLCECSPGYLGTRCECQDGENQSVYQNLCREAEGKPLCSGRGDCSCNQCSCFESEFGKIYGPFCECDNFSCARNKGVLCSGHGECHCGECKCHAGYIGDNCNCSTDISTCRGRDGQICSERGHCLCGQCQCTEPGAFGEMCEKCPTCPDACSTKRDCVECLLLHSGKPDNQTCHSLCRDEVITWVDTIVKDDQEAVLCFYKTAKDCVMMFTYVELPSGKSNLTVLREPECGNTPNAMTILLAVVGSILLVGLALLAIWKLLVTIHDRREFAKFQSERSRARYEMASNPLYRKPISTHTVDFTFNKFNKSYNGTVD

Compound	Kd (human integrin αvβ5; [2])	Kd (human integrin αvβ5; [3])	Performance evaluation: Stability (residual rate of cyclic peptide after alkali treatment) [1]	Stability (molecule stability, residual rate of the cyclic peptide rank) [1]
CC[C@H](C)[C@@H]1NC(=O)[C@@H](NC(=O)CNC(=O)[C@H](CCCCN)NC(=O)[C@H](CCCCN)NC(=O)[C@@H](N)CCCCN)CCSCC(=O)NCC[C@@H](C(=O)O)NC(=O)[C@H](CCCNC(=N)N)NC(=O)[C@H](Cc2ccccc2)NC(=O)[C@H]([C@@H](C)O)NC(=O)[C@H](CC(=O)O)NC(=O)CNC(=O)[C@H](CCCNC(=N)N)NC(=O)[C@@H]2CCCN2C1=O [Cyclic peptide 59, KKKG-(Hcy)-IPRGDTFR(Dab(acetyl))] (H-KKKG[hCys]IPRGDTFR[Dab]-OH; linker 5-14 via X2)	< 0.05 µM		A (The residual rate of the cyclic peptide is 70% or more.)	
CC[C@H](C)[C@@H]1NC(=O)[C@@H](NC(=O)[C@H](CCCCN)NC(=O)[C@H](CCCCN)NC(=O)[C@@H](N)CCCCN)CCSCC(=O)NCC[C@@H](C(=O)O)NC(=O)[C@H](Cc2ccccc2)NC(=O)[C@H]([C@@H](C)O)NC(=O)[C@H](CC(=O)O)NC(=O)CNC(=O)[C@H](CCCNC(=N)N)NC(=O)[C@@H]2CCCN2C1=O [Cyclic peptide 63, KKK-(Hcy)-IPRGDTF(Dab(acetyl))] (H-KKK[hCys]IPRGDTF[Dab]-OH; linker 4-12 via X2)	< 0.05 µM		A (The residual rate of the cyclic peptide is 70% or more.)	
CC[C@H](C)[C@@H]1NC(=O)[C@@H](NC(=O)[C@H](CCCCN)NC(=O)[C@H](CCCCN)NC(=O)[C@@H](N)CCCCN)CCSCC(=O)NCC[C@@H](C(=O)N[C@@H](C)C(=O)O)NC(=O)[C@H](CCCNC(=N)N)NC(=O)[C@H](Cc2ccccc2)NC(=O)[C@H](CC(N)=O)NC(=O)[C@H](CC(=O)O)NC(=O)CNC(=O)[C@H](CCCNC(=N)N)NC(=O)[C@@H]2CCCN2C1=O [Cyclic peptide 3, KKK-(Hcy)-IPRGDNFR(Dab(acetyl))A] (H-KKK[hCys]IPRGDNFR[Dab]A-OH; linker 4-13 via X2)	< 0.05 µM		A (The residual rate of the cyclic peptide is 70% or more.)	
CC[C@H](C)[C@@H]1NC(=O)[C@H](C)NC(=O)[C@@H](NC(=O)[C@H](CCCCN)NC(=O)[C@H](CCCCN)NC(=O)[C@@H](N)CCCCN)CCSCC(=O)NCC[C@@H](C(=O)N[C@@H](C)C(=O)O)NC(=O)[C@H](CCCNC(=N)N)NC(=O)[C@H](Cc2ccccc2)NC(=O)[C@H](CC(N)=O)NC(=O)[C@H](CC(=O)O)NC(=O)CNC(=O)[C@H](CCCNC(=N)N)NC(=O)[C@@H]2CCCN2C1=O [Cyclic peptide 15, KKK-(Hcy)-AIPRGDNFR(Dab(acetyl))A] (H-KKK[hCys]AIPRGDNFR[Dab]A-OH; linker 4-14 via X2)	0.05 to 0.1 µM		A (The residual rate of the cyclic peptide is 70% or more.)	
C[C@H](NC(=O)[C@H](CCCCN)NC(=O)[C@H](CCCCN)NC(=O)[C@@H](N)CCCCN)C(=O)N[C@H]1CNC(=O)CSCC[C@@H](C(=O)N[C@@H](CC(=O)O)C(=O)O)NC(=O)[C@H](CCCNC(=N)N)NC(=O)[C@H](Cc2ccc(O)cc2)NC(=O)[C@H](CC(N)=O)NC(=O)[C@H](CC(=O)O)NC(=O)CNC(=O)[C@H](CCCNC(=N)N)NC(=O)[C@@H]2CCCN2C(=O)[C@H](CCC(=O)O)NC1=O [Cyclic peptide 48, KKKA(Dap(acetyl))EPRGDNYR-(Hcy)-D] (H-KKKA[Dap]EPRGDNYR[hCys]D-OH; linker 5-14 via X1)	< 0.05 µM		B (The residual rate of the cyclic peptide is 50% or more and less than 70%.)	
CC[C@H](C)[C@@H]1NC(=O)[C@@H](NC(=O)[C@H](C)NC(=O)[C@H](CCCCN)NC(=O)[C@H](CCCCN)NC(=O)[C@@H](N)CCCCN)CCSCC(=O)NCC[C@@H](C(=O)N[C@@H](C)C(=O)O)NC(=O)[C@H](CCCNC(=N)N)NC(=O)[C@H](Cc2ccccc2)NC(=O)[C@H](C)NC(=O)[C@H](CC(=O)O)NC(=O)CNC(=O)[C@H](CCCNC(=N)N)NC(=O)[C@@H]2CCCN2C1=O [Cyclic peptide 79, KKKA-(Hcy)-IPRGDAFR(Dab(acetyl))A] (H-KKKA[hCys]IPRGDAFR[Dab]A-OH; linker 5-14 via X2)	0.05 to 0.1 µM		A (The residual rate of the cyclic peptide is 70% or more.)	

More lines, main results first:

Kd (human integrin αvβ5; [2])	Kd (human integrin αvβ5; [3])	Compound	Performance evaluation: Stability (residual rate of cyclic peptide after alkali treatment) [1]	Stability (molecule stability, residual rate of the cyclic peptide rank) [1]
	< 0.05 µM	CC[C@H](C)[C@@H]1NC(=O)[C@@H](NC(=O)CNC(=O)[C@H](CCCCN)NC(=O)[C@H](CCCCN)NC(=O)[C@@H](N)CCCCN)CCCNC(=O)CSC(C)(C)[C@@H](C(=O)N[C@@H](C)C(=O)O)NC(=O)[C@H](CCCNC(=N)N)NC(=O)[C@H](Cc2ccccc2)NC(=O)[C@H]([C@@H](C)O)NC(=O)[C@H](CC(=O)O)NC(=O)CNC(=O)[C@H](CCCNC(=N)N)NC(=O)[C@@H]2CCCN2C1=O [Cyclic peptide 134, KKKG(Orn(acetyl))IPRGDTFR-(Pen)-A] (H-KKKG[Orn]IPRGDTFR[Pen]A-OH; linker 5-14 via X1)		A (The residual rate of the cyclic peptide is 70% or more.)
< 0.05 µM		CC[C@H](C)[C@@H]1NC(=O)[C@@H](NC(=O)CNC(=O)[C@H](CCCCN)NC(=O)[C@H](CCCCN)NC(=O)[C@@H](N)CCCCN)CCSCC(=O)NCC[C@@H](C(=O)N[C@@H](C)C(=O)O)NC(=O)[C@H](C)NC(=O)[C@H](Cc2ccccc2)NC(=O)[C@H](CO)NC(=O)[C@H](CC(=O)O)NC(=O)CNC(=O)[C@H](CCCNC(=N)N)NC(=O)[C@@H]2CCCN2C1=O [Cyclic peptide 94, KKKG-(Hcy)-IPRGDSFA(Dab(acetyl))A] (H-KKKG[hCys]IPRGDSFA[Dab]A-OH; linker 5-14 via X2)	A (The residual rate of the cyclic peptide is 70% or more.)	
	0.05 to 0.1 µM	CC[C@H](C)[C@@H]1NC(=O)[C@@H](NC(=O)CNC(=O)[C@H](CCCCN)NC(=O)[C@H](CCCCN)NC(=O)[C@@H](N)CCCCN)C(C)(C)SCC(=O)NCC[C@@H](C(=O)N[C@@H](C)C(=O)O)NC(=O)[C@H](CCCNC(=N)N)NC(=O)[C@H](Cc2ccccc2)NC(=O)[C@H]([C@@H](C)O)NC(=O)[C@H](CC(=O)O)NC(=O)CNC(=O)[C@H](CCCNC(=N)N)NC(=O)[C@@H]2CCCN2C1=O [Cyclic peptide 129, KKKG-(Pen)-IPRGDTFR(Dab(acetyl))A] (H-KKKG[Pen]IPRGDTFR[Dab]A-OH; linker 5-14 via X2)		A (The residual rate of the cyclic peptide is 70% or more.)
	< 0.05 µM	CC[C@H](C)[C@@H]1NC(=O)[C@@H](NC(=O)[C@H](C)N)CCSCC(=O)NCC[C@@H](C(=O)NCC(=O)O)NC(=O)[C@H](C)NC(=O)[C@H](Cc2ccccc2)NC(=O)[C@H](CO)NC(=O)[C@H](CC(=O)O)NC(=O)CNC(=O)[C@H](CCCNC(=N)N)NC(=O)[C@@H]2CCCN2C1=O [Cyclic peptide 127, A-(Hcy)-IPRGDSFA(Dab(acetyl))G] (H-A[hCys]IPRGDSFA[Dab]G-OH; linker 2-11 via X2)		A (The residual rate of the cyclic peptide is 70% or more.)
	0.05 to 0.1 µM	CC[C@H](C)[C@@H]1NC(=O)[C@@H](NC(=O)CNC(=O)[C@H](CCCCN)NC(=O)[C@H](CCCCN)NC(=O)[C@@H](N)CCCCN)CCNC(=O)CSC(C)(C)[C@@H](C(=O)N[C@@H](C)C(=O)O)NC(=O)[C@H](CCCNC(=N)N)NC(=O)[C@H](Cc2ccccc2)NC(=O)[C@H]([C@@H](C)O)NC(=O)[C@H](CC(=O)O)NC(=O)CNC(=O)[C@H](CCCNC(=N)N)NC(=O)[C@@H]2CCCN2C1=O [Cyclic peptide 133, KKKG(Dab(acetyl))IPRGDTFR-(Pen)-A] (H-KKKG[Dab]IPRGDTFR[Pen]A-OH; linker 5-14 via X1)		A (The residual rate of the cyclic peptide is 70% or more.)
< 0.05 µM		CC[C@H](C)[C@@H]1NC(=O)[C@@H](NC(=O)CNC(=O)[C@H](CCCCN)NC(=O)[C@H](CCCCN)NC(=O)[C@@H](N)CCCCN)CCSCC(=O)NCC[C@@H](C(=O)NCC(=O)O)NC(=O)[C@H](C)NC(=O)[C@H](Cc2ccccc2)NC(=O)[C@H](CO)NC(=O)[C@H](CC(=O)O)NC(=O)CNC(=O)[C@H](CCCNC(=N)N)NC(=O)[C@@H]2CCCN2C1=O [Cyclic peptide 95, KKKG-(Hcy)-IPRGDSFA(Dab(acetyl))G] (H-KKKG[hCys]IPRGDSFA[Dab]G-OH; linker 5-14 via X2)	A (The residual rate of the cyclic peptide is 70% or more.)	
< 0.05 µM		CC[C@H](C)[C@@H]1NC(=O)[C@@H](NC(=O)[C@H](C)NC(=O)[C@H](CCCCN)NC(=O)[C@H](CCCCN)NC(=O)[C@@H](N)CCCCN)CCSCC(=O)NCC[C@@H](C(=O)NCC(=O)O)NC(=O)[C@H](C)NC(=O)[C@H](Cc2ccccc2)NC(=O)[C@H](CO)NC(=O)[C@H](CC(=O)O)NC(=O)CNC(=O)[C@H](CCCNC(=N)N)NC(=O)[C@@H]2CCCN2C1=O [Cyclic peptide 93, KKKA-(Hcy)-IPRGDSFA(Dab(acetyl))G] (H-KKKA[hCys]IPRGDSFA[Dab]G-OH; linker 5-14 via X2)	A (The residual rate of the cyclic peptide is 70% or more.)	
